Patent US20230067194A1, “METHOD FOR TREATMENT OF ACQUIRED COGNITIVE DEFICITS” (CORNELL UNIVERSITY, priority 2020, published 2023)
“Also recorded” adds a separate entry of the source.

Tests used:
[1] = cited from earlier work
SBI mice = assay: Sleep-wake cycle LFP power spectra in secondary-blast injury (SBI) mice with sodium oxybate injection; type: in vivo
Procedure: FIGS. 7A-7B. Effects of sodium oxybate injection on the sleep-wake cycle of SBI mice. The top panels display the delta power during the dark (blue; daytime) and light (yellow; sleep time) within 24 hours in (A) Non-REM, or (B) Wake mice. The pink vertical lines represent the time in which animals received an intraperitoneal injection of sodium oxybate (SO; 400 mg/Kg) diluted in saline. The bottom panels show the LFP power spectra obtained from sleep periods and wake periods with and without sodium oxybate. In (A), the dark blue line represents NREM sleep without sodium oxybate administration and the red line represents NREM sleep with sodium oxybate administration. In (B), the dark blue line represents Wake without sodium oxybate administration during prior sleep and the red line represents Wake with sodium oxybate administration during prior sleep. Application of sodium oxybate during the night results in elevation of delta (1-5 Hz) LFP power and increases during the subsequent wakeful period in beta (15-30 Hz) and gamma (>30 Hz) LFP. Importantly, consistent with our theory because of the short half-life of sodium oxybate these changes in wakeful LFP power reflect alteration of cortical neuronal properties linked to the increased delta during sleep induced by sodium oxybate.
The inventors inflicted a secondary-blast injury (SBI) to mice targeting the anterior forebrain mesocircuit, which corresponds to the frontal/prefrontalcortical-pallidal thalamocortical loop systems.
The inventors examined animals' sleep-wake cycle before, after the SBI, and while injecting sodium oxybate (400 mg/Kg; FIG. 7A-7B). Local field potentials (LFPs) were recorded from the frontal area and neck-EMG activity to detect and extract the different sleep/wake cycle components—Non-REM, REM, and Wake state. The inventors examined the whole range of biological LFP frequencies before and after sodium oxybate injection by calculating power spectral density using Thomson's multi-taper method implemented using the Chronux tool box from MATLAB.

[2] = FIG. 7 legend, intraperitoneal 400 mg/Kg during prior sleep
[3] = wake state post-sodium oxybate injection (400 mg/Kg), 400 mg/kg

O=C(O)CCCO [sodium oxybate]
SWS (slow wave sleep) ([1]; dose-dependent): dose-dependent upregulation | alpha-delta sleep ([1]; in several conditions): suppress alpha-delta sleep | beta (15-30 Hz) LFP power during the subsequent wakeful period (SBI mice; [2]): increases | gamma (>30 Hz) LFP power during the subsequent wakeful period (SBI mice; [2]): increases | delta (1-5 Hz) LFP power (SBI mice; FIG. 7 legend, intraperitoneal 400 mg/Kg in saline, application during the night, NREM sleep): elevation | delta oscillations (1-4 Hz) LFP power in Non-REM (SBI mice; sodium oxybate 400 mg/Kg injected right before the sleep time (9 pm), frontal LFP): increase; also recorded: elevation | beta (20-40 Hz) LFP power during the wake state (SBI mice; [3]): higher; also recorded: increases | gamma (>40 Hz) LFP power during the wake state (SBI mice; [3]): higher; also recorded: increases | persistence of the elevation of delta power during the wakeful period (SBI mice; wakeful period after night application of sodium oxybate): does not persist
